Data on 5 molecules can be found in patent US4313946A, “Chemotherapeutically active maytansinoids from Trewia nudiflora” (priority 1981, dated 1982).

One series has as its system B16 melancarcinoma. As to the kind of experiment: B1 system against B16 melancarcinoma in mice (NCI Protocol 1.300). Format: in vivo. To be noted: i.p. once a day for 9 days, vehicle Klucel, male B6C3F1 mice. As to the method: Trewiasine was also evaluated in the B1 system against B16 melancarcinoma in mice. This assay is conducted in accordance with the NCI Protocol 1.300 described in Geran et al., supra. Starting 24 hours after the tumor implantation, predetermined doses of the compound were injected intraperitoneally once a day for 9 days. The results are reported in Table V below as the percent T/C.

Series [1] deals with lymphocytic leukemia P388. As to the kind of experiment: PS system against lymphocytic leukemia P388 in mice (NCI Protocol 1.200). Format: in vivo. The note with it: i.p. once a day for 9 days. As to the method: Another indication of fraction activity is the effectiveness in the PS system against lymphocytic leukemia P388 in mice. These assays are conducted according to the NCI Protocol 1.200 described in Geran et al., supra. Starting 24 hours after the tumor implantation, previously determined doses of each compound were injected intraperitoneally once a day for 9 days. Survival time of treated leukemic mice is compared to that of untreated mice (T/C×100). A T/C value of 100% indicates no activity. A T/C value greater than 100% means that the treated mice are surviving longer than the control mice. A compound giving a T/C value greater than 125% is indicative of activity as defined by the NCI Protocols, above.

Series [2] has as its system cultivated cells of human epidermoid carcinoma of the mouth (KB). The series can be described thus: KB Cell Culture Screen (NCI Protocol 1.600). Format: cell-based. To be noted: for IC50: Homo sapiens, KB, 72 h, 3 days after drug addition, activity indicated for ED50 ≤30 μg./ml., read-out: ED50 (dose that inhibits growth to 50% of control growth). The protocol:
The KB Cell Culture Screen used in guiding the above-described fractionations was conducted in accordance with the National Cancer Institute (NCI) Protocol 1.600 [Geran et al., Cancer Chemother. Rep., Part 3, 3:17 (1972)] in which the effectiveness of the test compounds against cultivated cells of human epidermoid carcinoma of the mouth was evaluated. The results of this procedure are expressed as the dose that inhibits growth to 50% of control growth by 3 days after drug addition. Such a dose is referred to as ED50 and activity is indicated for ED50 levels of ≤30 μg./ml. The smaller the ED50 level, the more cytotoxic the test material. The activities of the crystallized compounds isolated above are reported below in Table III.

The subject of series [3] is lymphocytic leukemia P388. The note with it: Wani et al. 1973; cited from earlier work.

In brackets after ≈: the same amount, converted by molar mass. Entries after “also recorded” stand apart in the source; their conditions may differ.

As for `COc1cc2cc(c1Cl)N(C)C(=O)CC(OC(=O)C(C)N(C)C(=O)C(C)C)C1(C)OC1C(C)C1CC(O)(NC(=O)O1)C(OC)C=CC=C(C)C2OC` (stereo not drawn) [trewiasine, 15-methoxymaytanbutine], the T/C in the series on B16 melancarcinoma (1.00 μg./kg./inj.) was found to be 133%; with B16 melancarcinoma (2.00 μg./kg./inj.) it was 140%; with B16 melancarcinoma (4.00 μg./kg./inj.), 157%; in the series on B16 melancarcinoma (8.00 μg./kg./inj.), 185%; with B16 melancarcinoma (16.00 μg./kg./inj.), 172%; in the series on B16 melancarcinoma (32.00 μg./kg./inj.), 183%. For the same molecule, the T/C is recorded as 163% in series [1] (4.00 μg./kg./inj., vehicle Klucel, female CDF1 mice); 140% in series [1] (8.00 μg./kg./inj., vehicle Klucel, female CDF1 mice); 154% in series [1] (16.00 μg./kg./inj., vehicle Klucel, female CDF1 mice); 128% in series [1] (32.00 μg./kg./inj., vehicle Klucel, female CDF1 mice); 91% in series [1] (64.00 μg./kg./inj., vehicle Klucel, female CDF1 mice). Further, the IC50 in series [2] was determined as 0.2 ng/mL (≈ 0.267 nM). For the same molecule, the “cytotoxicity relative to that reported by Kupchan for other maytansinoids” value in series [2] (KB system, compared with maytansine, maytanbutine and similar compounds) is on record as “one or more orders of magnitude less; also recorded: at least one order of magnitude less”.

For `C=C(C)C(=O)N(C)C(C)C(=O)OC1CC(=O)N(C)c2cc(cc(OC)c2Cl)C(OC)C(C)=CC=CC(OC)C2(O)CC(OC(=O)N2)C(C)C2OC12C` (stereo not drawn) [dehydrotrewiasine], the T/C in series [1] (4.00 μg./kg./inj., vehicle biological saline, male CDF1 mice) turned out to be 120%; in series [1] (8.00 μg./kg./inj., vehicle biological saline, male CDF1 mice), 127%; in series [1] (16.00 μg./kg./inj., vehicle biological saline, male CDF1 mice) it was 120%; in series [1] (32.00 μg./kg./inj., vehicle biological saline, male CDF1 mice) it was 145%. Also, in series [2], the IC50 was below 10 ng/mL.

For `COc1cc2cc(c1Cl)N(C)C(=O)CC(OC(=O)C(C)NC(=O)C(C)C)C1(C)OC1C(C)C1CC(O)(NC(=O)O1)C(OC)C=CC=C(C)C2OC` (stereo not drawn) [demethyltrewiasine], the IC50 in series [2] was below 10 ng/mL.

On to `COc1cc2cc(c1Cl)N(C)C(=O)CC(OC(=O)C(C)N(C)C(=O)C(C)C)C1(C)OC1C(C)C1CC(O)(NC(=O)O1)C(OC)C=CC=C(C)C2OC(C)=O` (stereo not drawn) [colubrinol acetate], for which, in series [3], the “activity against lymphocytic leukemia P388” value is “activity against lymphocytic leukemia P388 at the microgram per kilogram level”.

Turning to `COc1cc2cc(c1Cl)N(C)C(=O)CC(OC(=O)C(C)N(C)C(=O)C(C)C)C1(C)OC1C(C)C1CC(O)(NC(=O)O1)C(OC)C=CC=C(C)C2O` (stereo not drawn) [colubrinol], the “activity against lymphocytic leukemia P388” value in series [3] is “activity against lymphocytic leukemia P388 at the microgram per kilogram level”.

The term T/C denotes the result in the treated group divided by that in the control group, in per cent.
